Experiments:
[1] = Tmax in human administered with standard high-fat meal; format: ADME, organism-based; details: in vivo
[2] = Half life po dosed human receiving 1000 mg cumulative dose and reporting drug-associated vomiting and/or nausea on day 3 at 200 mg daily for 3 days followed by weekly dose of 200 mg for 6 months; format: ADME, organism-based; details: in vivo
[3] = Apparent clearance with respect to the bioavailability po dosed human receiving 1000 mg cumulative dose and reporting drug-associated depression on day 24 at 200 mg daily for 3 days followed by weekly dose of 200 mg for 6 months; format: ADME, organism-based; details: in vivo
[4] = Apparent volume of distribution with respect to the bioavailability in po dosed human receiving 600 mg cumulative dose and reporting drug-associated vomiting and/or nausea on day 3 at 200 mg daily for 3 days followed by weekly dose of 200 mg for 6 months; format: ADME, organism-based; details: in vivo, read-out: Vc/F
[5] = Apparent volume of distribution with respect to the bioavailability in po dosed human receiving 1000 mg cumulative dose and reporting drug-associated depression on day 24 at 200 mg daily for 3 days followed by weekly dose of 200 mg for 6 months; format: ADME, organism-based; details: in vivo, read-out: Vc/F
[6] = Apparent volume of distribution with respect to the bioavailability in po dosed human receiving 400 mg cumulative dose and reporting drug-associated insomnia on day 1 at 200 mg daily for 3 days followed by weekly dose of 200 mg for 6 months; format: ADME, organism-based; details: in vivo, read-out: Vc/F
[7] = Clast in po dosed human receiving 1000 mg cumulative dose and reporting drug-associated abdominal pain on day 20 at 200 mg daily for 3 days followed by weekly dose of 200 mg for 6 months; format: ADME, organism-based, Abdomen; details: in vivo, read-out: Clast
[8] = Apparent clearance with respect to the bioavailability po dosed human receiving 1000 mg cumulative dose and reporting drug-associated abdominal pain on day 20 at 200 mg daily for 3 days followed by weekly dose of 200 mg for 6 months; format: ADME, organism-based, Abdomen; details: in vivo
[9] = Apparent clearance with respect to the bioavailability po dosed human receiving 800 mg cumulative dose and reporting drug-associated with hyperesthesia on day 12 at 200 mg daily for 3 days followed by weekly dose of 200 mg for 6 months; format: ADME, organism-based; details: in vivo
[10] = Clast in po dosed human receiving 600 mg cumulative dose and reporting drug-associated vomiting and/or nausea reported on day 3 at 200 mg daily for 3 days followed by weekly dose of 200 mg for 6 months; format: ADME, organism-based; details: in vivo, read-out: Clast
[11] = Trough concentration in po dosed human at 200 mg daily for 3 days followed by weekly dose of 200 mg for 6 months after 4 weeks; format: ADME, organism-based; details: in vivo, read-out: Cmin
[12] = Apparent clearance with respect to bioavailability in po dosed human at 200 mg daily for 3 days followed by weekly dose of 200 mg for 6 months; format: ADME, organism-based; details: in vivo
[13] = Trough concentration in po dosed human at 200 mg daily for 3 days followed by weekly dose of 200 mg for 6 months after 16 weeks; format: ADME, organism-based; details: in vivo, read-out: Cmin
[14] = Half life po dosed human receiving 200 mg cumulative dose and reporting drug-associated insomnia on day 1 at 200 mg daily for 3 days followed by weekly dose of 200 mg for 6 months; format: ADME, organism-based; details: in vivo
[15] = Apparent clearance with respect to the bioavailability po dosed human receiving 200 mg cumulative dose and reporting drug-associated insomnia reported on day 1 at 200 mg daily for 3 days followed by weekly dose of 200 mg for 6 months; format: ADME, organism-based; details: in vivo
[16] = Clast in po dosed human […] and reporting drug-associated hyperesthesia on day 12 dosed at 200 mg daily for 3 days followed by weekly dose of 200 mg for 6 months; format: ADME, organism-based; details: in vivo, read-out: Clast
[17] = Apparent volume of distribution with respect to the bioavailability in po dosed human receiving 1000 mg cumulative dose and reporting drug-associated abdominal pain on day 20 at 200 mg daily for 3 days followed by weekly dose of 200 mg for 6 months; format: ADME, organism-based, Abdomen; details: in vivo, read-out: Vc/F
[18] = Half life po dosed human receiving 1000 mg cumulative dose and reporting drug-associated depression on day 24 at 200 mg daily for 3 days followed by weekly dose of 200 mg for 6 months; format: ADME, organism-based; details: in vivo
[19] = Clast in po dosed human receiving 1000 mg cumulative dose and reporting drug-associated depression reported on day 24 at 200 mg daily for 3 days followed by weekly dose of 200 mg for 6 months; format: ADME, organism-based; details: in vivo, read-out: Clast
[20] = Apparent clearance with respect to the bioavailability po dosed human receiving 400 mg cumulative dose and reporting drug-associated diarrhea and/or abdominal pain on day 2 at 200 mg daily for 3 days followed by weekly dose of 200 mg for 6 months; format: ADME, organism-based, Abdomen; details: in vivo
[21] = Apparent volume of distribution with respect to the bioavailability in po dosed human receiving 800 mg cumulative dose and reporting drug-associated hyperesthesia on day 12 at 200 mg daily for 3 days followed by weekly dose of 200 mg for 6 months; format: ADME, organism-based; details: in vivo, read-out: Vc/F
[22] = Half life po dosed human receiving 1000 mg cumulative dose and reporting drug-associated abdominal pain on day 20 at 200 mg daily for 3 days followed by weekly dose of 200 mg for 6 months; format: ADME, organism-based, Abdomen; details: in vivo
[23] = Apparent volume of distribution with respect to the bioavailability in po dosed human receiving 400 mg cumulative dose and reporting drug-associated diarrhea and/or abdominal pain on day 2 at 200 mg daily for 3 days followed by weekly dose of 200 mg for 6 months; format: ADME, organism-based, Abdomen; details: in vivo, read-out: Vc/F
[24] = Half life po dosed human receiving 400 mg cumulative dose and reporting drug-associated diarrhea and/or abdominal pain on day 2 at 200 mg daily for 3 days followed by weekly dose of 200 mg for 6 months; format: ADME, organism-based, Abdomen; details: in vivo
[25] = Apparent clearance with respect to the bioavailability in human at 600 mg cumulative dose with vomiting and/or nausea reported on day 3 at 200 mg daily for 3 days followed by weekly dose of 200 mg for 6 months, po; format: ADME, organism-based; details: in vivo
[26] = Tmax in fasted human; format: ADME, organism-based; details: in vivo
[27] = Apparent volume of distribution with respect to bioavailability in po dosed human at 200 mg daily for 3 days followed by weekly dose of 200 mg for 6 months; format: ADME, organism-based; details: in vivo, read-out: Vc/F
[28] = Trough concentration in po dosed human at 200 mg daily for 3 days followed by weekly dose of 200 mg for 6 months after 8 weeks; format: ADME, organism-based; details: in vivo, read-out: Cmin
[29] = Half life in po dosed human at 200 mg daily for 3 days followed by weekly dose of 200 mg for 6 months; format: ADME, organism-based; details: in vivo
[30] = Half life po dosed human receiving 800 mg cumulative dose and reporting drug-associated hyperesthesia on day 12 at 200 mg daily for 3 days followed by weekly dose of 200 mg for 6 months; format: ADME, organism-based; details: in vivo

Tmax [1]: 1.1 days
half-life [2]: 9.8 days
CL/F [3]: 1.02 mL/min/kg
Vd/F [4]: 26.1 L/kg
Vd/F [5]: 25.1 L/kg
Vd/F [6]: 23.2 L/kg
concentration at 72 h [7]: 253 ng/mL
CL/F [8]: 0.883 mL/min/kg
CL/F [9]: 0.767 mL/min/kg
concentration at 72 h [10]: 315 ng/mL
concentration at 672 h [11]: 221 ng/mL
CL/F [12]: 72.8 mL/min
concentration at 2688 h [13]: 221 ng/mL
half-life [14]: 11.3 days
CL/F [15]: 0.983 mL/min/kg
concentration at 72 h [16]: 283 ng/mL
Vd/F [17]: 27.8 L/kg
half-life [18]: 12 days
concentration at 72 h [19]: 275 ng/mL
CL/F [20]: 0.983 mL/min/kg
Vd/F [21]: 20.7 L/kg
half-life [22]: 15.1 days
Vd/F [23]: 24.4 L/kg
half-life [24]: 12 days
CL/F [25]: 1.28 mL/min/kg
Tmax [26]: 0.775 days
Vd/F [27]: 1900 L
concentration at 1344 h [28]: 221 ng/mL
half-life [29]: 12.7 days
half-life [30]: 13.1 days
SMILES: COc1cc(C)c2c(Oc3cccc(C(F)(F)F)c3)c(OC)cc(NC(C)CCCN)c2n1 (stereo not given) [TAFENOQUINE]

— ChEMBL document CHEMBL1155159, “Population pharmacokinetics of tafenoquine during malaria prophylaxis in healthy subjects” (Antimicrob Agents Chemother, 2007)
